Test systems include RPMI-8226 leukemia; UACC-62 melanoma; MALME-3M melanoma; HCC-2998 colon; LOX IMVI melanoma; U251 CNS; SK-MEL-5 melanoma; HCT-116 colon; SN12C renal; 786-0 renal.
Common to all, as to experiment: DTP human tumour cell line panel, 48 h

Among the data in PubChem BioAssay (NCI) are GI50 and TGI values, retold here.

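Protocol summary: plate cells (96-well), add compound at 5 concentrations, incubate 48 h, interpolate endpoints linearly. At the GI50, growth is halved. TGI marks complete inhibition of growth.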

For the compound `CC[C@@H](C(=O)O)C1CC[C@H](C)C([C@@H](C)[C@H](O)[C@H](C)C(=O)[C@H](CC)C2O[C@]3(C=C[C@@H](O)[C@]4(CC[C@@](C)(C5CC[C@](O)(CC)[C@H](C)O5)O4)O3)[C@H](C)C[C@@H]2C)O1` (stereo partly drawn), the GI50 was 0.153 µM in the assay with RPMI-8226 leukemia; 0.767 µM in the assay on UACC-62 melanoma; 0.226 µM in the assay on MALME-3M melanoma; 0.13 µM in the assay with HCC-2998 colon; 0.641 µM in the assay on LOX IMVI melanoma; 0.115 µM in the assay with U251 CNS. The GI50 in the assay on SK-MEL-5 melanoma is 0.18 µM; with HCT-116 colon, 0.369 µM; in the assay on SN12C renal it was 0.128 µM; in the assay on 786-0 renal it was 0.656 µM. The TGI in the assay with RPMI-8226 leukemia was found to be 3.48 µM; in the assay with UACC-62 melanoma, 2.15 µM; in the assay with MALME-3M melanoma, 1.37 µM; with HCC-2998 colon, 7.52 µM; with LOX IMVI melanoma it was 13.6 µM; with U251 CNS it was 10.2 µM. Further, the TGI came to 0.86 µM in the assay with SK-MEL-5 melanoma, 16.6 µM in the assay with HCT-116 colon, 28.7 µM with SN12C renal and 7.92 µM in the assay with 786-0 renal.
Consider `NCCn1c(=O)[nH]c(=O)[nH]c1=S`, for which the GI50 in the assay with RPMI-8226 leukemia, with UACC-62 melanoma, with MALME-3M melanoma, in the assay with HCC-2998 colon, in the assay with LOX IMVI melanoma and with U251 CNS was above 100 µM throughout. In addition, the GI50 in the assay with SK-MEL-5 melanoma, with HCT-116 colon, in the assay with SN12C renal and in the assay on 786-0 renal was above 100 µM in each case. For the same compound, the TGI in the assay with RPMI-8226 leukemia, in the assay on UACC-62 melanoma, with MALME-3M melanoma, in the assay on HCC-2998 colon, in the assay with LOX IMVI melanoma and in the assay with U251 CNS was above 100 µM each time. The concentration for total growth inhibition (TGI) with SK-MEL-5 melanoma, in the assay with HCT-116 colon, in the assay with SN12C renal and in the assay with 786-0 renal was above 100 µM in each case.
For the compound `Cc1cc(N(CCCl)CCCl)ccc1C=Nc1ccc(-c2csc(Cc3ccccc3)n2)cc1`, the GI50 in the assay with RPMI-8226 leukemia was 8.26 µM; with UACC-62 melanoma, 0.621 µM; in the assay with MALME-3M melanoma it was 16.4 µM; in the assay with HCC-2998 colon, 14.4 µM; with LOX IMVI melanoma, 7.95 µM; in the assay with U251 CNS it was 7.82 µM. Also, the GI50 is 7.68 µM with SK-MEL-5 melanoma, 13.6 µM in the assay on HCT-116 colon, 3.85 µM in the assay on SN12C renal and 5.86 µM in the assay with 786-0 renal. The TGI turned out to be 44 µM in the assay on RPMI-8226 leukemia; 16 µM with UACC-62 melanoma; 33.2 µM in the assay with MALME-3M melanoma; 33.3 µM with HCC-2998 colon; 20.8 µM in the assay with LOX IMVI melanoma; 37.6 µM with U251 CNS. Further, the TGI in the assay with SK-MEL-5 melanoma is 21.2 µM; with HCT-116 colon, 40.3 µM; with SN12C renal it was 62.8 µM; with 786-0 renal, 49.1 µM.
Consider `COc1cc(C(=O)C/C(CCCC(=O)Nc2ccccc2[N+](=O)[O-])=N/NC(=O)c2cc3ccccc3cc2O)ccc1O`, for which the TGI in the assay with RPMI-8226 leukemia was above 100 µM; in the assay with UACC-62 melanoma, 53.2 µM; with MALME-3M melanoma it was above 100 µM; in the assay on HCC-2998 colon, above 76.2 µM; in the assay with LOX IMVI melanoma it was above 65.4 µM; with U251 CNS, above 100 µM. For the same compound, the concentration for total growth inhibition (TGI) with SK-MEL-5 melanoma is above 83.7 µM; in the assay with HCT-116 colon it was above 100 µM; in the assay with SN12C renal, above 100 µM; with 786-0 renal, above 100 µM.
For `CN(C)C(=O)OC(Cn1cncn1)c1ccc(Cl)cc1Cl` (stereo not drawn), the TGI with RPMI-8226 leukemia, in the assay on UACC-62 melanoma, with MALME-3M melanoma, in the assay on HCC-2998 colon, with LOX IMVI melanoma and in the assay on U251 CNS was above 100 µM each time. In addition, the TGI in the assay with SK-MEL-5 melanoma, with HCT-116 colon, in the assay on SN12C renal and with 786-0 renal was above 100 µM throughout.
With `CN(C)CCNc1c2c(c(NCCN(C)C)c3[nH]ccc13)C(=O)c1ccccc1C2=O`, the GI50 with RPMI-8226 leukemia was 0.737 µM; with UACC-62 melanoma it was 1.64 µM; in the assay on MALME-3M melanoma, 3.3 µM; with HCC-2998 colon, 0.393 µM; in the assay on LOX IMVI melanoma it was 0.737 µM; in the assay on U251 CNS it was 0.507 µM. Moreover, the GI50 in the assay with SK-MEL-5 melanoma is 1.81 µM; with HCT-116 colon, 0.281 µM; with SN12C renal, 0.519 µM; in the assay on 786-0 renal, 0.899 µM. Also, the total growth inhibition concentration (TGI) in the assay on RPMI-8226 leukemia is 2.79 µM; in the assay on UACC-62 melanoma it was 14.8 µM; with MALME-3M melanoma, 11.9 µM; in the assay with HCC-2998 colon, 3.28 µM; with LOX IMVI melanoma, 3.39 µM; with U251 CNS, 15.9 µM. Further, the total growth inhibition concentration (TGI) was found to be 3.88 µM in the assay on SK-MEL-5 melanoma and 2.61 µM in the assay on SN12C renal.
As for `CCOC(=O)COc1ccccc1/C=C1\CCC(CN(C)C)C1=O` (stereo not drawn), the concentration for total growth inhibition (TGI) in the assay with RPMI-8226 leukemia amounted to 3.48 µM; with UACC-62 melanoma it was 17.4 µM; in the assay on MALME-3M melanoma, 12 µM; in the assay with HCC-2998 colon, 7.98 µM; in the assay on LOX IMVI melanoma, 5.43 µM; with U251 CNS it was 14.8 µM. In addition, the TGI with SK-MEL-5 melanoma was 22.4 µM; with HCT-116 colon, 9.36 µM; with SN12C renal it was 14.1 µM; in the assay with 786-0 renal, 11.7 µM.
In the case of `Cc1c(C(=O)C/C(=N\O)C(=O)Nc2cc(Cl)c(Cl)cc2Cl)[n+](=O)c2ccccc2n1[O-]`, the TGI with RPMI-8226 leukemia stood at 38.4 µM; in the assay with UACC-62 melanoma, 16.5 µM; with MALME-3M melanoma it was 21.1 µM; in the assay with HCC-2998 colon, 23.5 µM; in the assay on LOX IMVI melanoma, 43.6 µM; in the assay with U251 CNS, 31.3 µM. Also, the TGI in the assay on SK-MEL-5 melanoma was 20.9 µM; in the assay with HCT-116 colon, 17 µM; in the assay with SN12C renal it was 18.9 µM; in the assay with 786-0 renal, above 100 µM.
For the compound `CC1OC(O[C@@H]2OC=C(C=O)[C@@]3(O)CC[C@H](C)[C@@H]23)C(O)C(O)C1O` (stereo partly drawn), the concentration for total growth inhibition (TGI) in the assay on RPMI-8226 leukemia, with UACC-62 melanoma, in the assay on MALME-3M melanoma, in the assay with HCC-2998 colon, with LOX IMVI melanoma and in the assay with U251 CNS was above 100 µM in each case. Further, the total growth inhibition concentration (TGI) in the assay with SK-MEL-5 melanoma, in the assay with HCT-116 colon, in the assay with SN12C renal and in the assay on 786-0 renal was above 100 µM each time.
As to `CC1=Nc2ccccc2S/C1=C(/C)NNC(=O)C(N)=O`, the TGI in the assay with RPMI-8226 leukemia, in the assay with UACC-62 melanoma, in the assay with MALME-3M melanoma, in the assay on HCC-2998 colon, with LOX IMVI melanoma and in the assay with U251 CNS was above 100 µM throughout. Also, the TGI with SK-MEL-5 melanoma, in the assay with HCT-116 colon, with SN12C renal and in the assay with 786-0 renal was above 100 µM throughout.

By GI50 is commonly meant the concentration that inhibits growth by half. For orientation: TGI means the concentration giving total growth inhibition. A high value points to lower sensitivity of the cells.
